Source: PubChem BioAssay AID256 (DTP/NCI, 2004)
“And” between values parts separate entries of the source, which are not always exact repeats. Equal values may be shown once. Toxic doses and inconclusive results are not listed.

System: CD2F1 mice, L1210 leukemia ip, survival T/C
Assay: NCI In Vivo Anticancer Drug Screen. Data for tumor model L1210 Leukemia (intraperitoneal) in CD2F1 (CDF1) mice
Conditions: higher = longer survival
Outline: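 Vehicle-treated tumor-bearing mice served as controls (C) for compound-treated mice (T). Reported figure is T divided by C.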

[1] = endpoint: mean survival time, dose: 50.0 mg/kg/injection, schedule: Q01DX009 (ip), vehicle: saline with Tween-80
[2] = endpoint: mean survival time, dose: 100.0 mg/kg/injection, schedule: Q01DX009 (ip), vehicle: saline with Tween-80
[3] = endpoint: mean survival time, dose: 200.0 mg/kg/injection, schedule: Q01DX009 (ip), vehicle: saline with Tween-80
[4] = endpoint: mean survival time, dose: 100.0 mg/kg/injection, schedule: Q01DX001 (ip), vehicle: saline
[5] = endpoint: mean survival time, dose: 200.0 mg/kg/injection, schedule: Q01DX001 (ip), vehicle: saline
[6] = endpoint: mean survival time, dose: 400.0 mg/kg/injection, schedule: Q01DX001 (ip), vehicle: saline
[7] = endpoint: mean survival time, dose: 100.0 mg/kg/injection, schedule: Q04DX003 (ip), vehicle: saline with Tween-80
[8] = endpoint: mean survival time, dose: 200.0 mg/kg/injection, schedule: Q04DX003 (ip), vehicle: saline with Tween-80
[9] = endpoint: mean survival time, dose: 400.0 mg/kg/injection, schedule: Q04DX003 (ip), vehicle: saline with Tween-80

SMILES: COc1c(OC(C)=O)ccc2c1C=CCCC2=O
- T/C [1]: 96 % of control
- T/C [2]: 100 % of control
- T/C [3]: 92 % of control

SMILES: Cc1ccc(N=Nc2ccc(N(C)C)cc2)c2cccnc12
- T/C [2]: 104 % of control

SMILES: COc1ccc(C2=CSc3ccccc3N2)cc1
- T/C (endpoint: mean survival time, dose: 100.0 mg/kg/injection, schedule: Q04DX002 (ip), vehicle: saline with Tween-80): 96 % of control
- T/C (endpoint: mean survival time, dose: 200.0 mg/kg/injection, schedule: Q04DX002 (ip), vehicle: saline with Tween-80): 104 % of control

SMILES: CC([NH-])CC[NH-].[Cl][Pt+2][Cl] (stereo not given)
- T/C (endpoint: mean survival time, dose: 6.25 mg/kg/injection, schedule: Q04DX003 (ip), vehicle: saline with Tween-80): 151 % of control

SMILES: O=S(=O)(CC(I)c1ccccc1)c1ccccc1 (stereo not given)
- T/C (endpoint: mean survival time, dose: 75.0 mg/kg/injection, schedule: Q01DX009 (ip), vehicle: saline): 99 % of control
- T/C (endpoint: mean survival time, dose: 150.0 mg/kg/injection, schedule: Q01DX009 (ip), vehicle: saline): 91 % of control
- T/C (endpoint: mean survival time, dose: 300.0 mg/kg/injection, schedule: Q01DX009 (ip), vehicle: saline): 92 % of control

SMILES: CCN1/C(=C\c2ccc3cc(C)ccc3[n+]2CC)[Se]c2ccccc21
- T/C (endpoint: mean survival time, dose: 1.25 mg/kg/injection, schedule: Q01DX001 (ip), vehicle: other): 105 % of control
- T/C (endpoint: mean survival time, dose: 2.5 mg/kg/injection, schedule: Q01DX001 (ip), vehicle: other): 101 % of control
- T/C (endpoint: mean survival time, dose: 5.0 mg/kg/injection, schedule: Q01DX001 (ip), vehicle: other): 106 % of control

SMILES: CC(=O)OC1COC(n2cnc3c(=S)nc[nH]c32)C(OC(C)=O)C1OC(C)=O (stereo not given)
- T/C [4]: 97 % of control
- T/C [5]: 102 % of control
- T/C [6]: 100 % of control

SMILES: CN1CCCC1CCNc1nc(C(Cl)(Cl)Cl)nc2cc(Cl)ccc12 (stereo not given)
- T/C [2]: 98 % of control
- T/C [7]: 95 % of control
- T/C [3]: 98 % of control
- T/C [8]: 90 % of control
- T/C (endpoint: mean survival time, dose: 400.0 mg/kg/injection, schedule: Q01DX009 (ip), vehicle: saline with Tween-80): 101 % of control
- T/C [9]: 100 % of control

SMILES: CCCCCCCCCC(=O)NCC[N+](C)(C)C
- T/C (endpoint: mean survival time, dose: 5.0 mg/kg/injection, schedule: Q01DX001 (ip), vehicle: saline): 107 % of control
- T/C (endpoint: mean survival time, dose: 10.0 mg/kg/injection, schedule: Q01DX001 (ip), vehicle: saline): 102 % of control
- T/C (endpoint: mean survival time, dose: 20.0 mg/kg/injection, schedule: Q01DX001 (ip), vehicle: saline): 103 % of control
- T/C (endpoint: mean survival time, dose: 40.0 mg/kg/injection, schedule: Q01DX001 (ip), vehicle: saline): 103 % of control
- T/C (endpoint: mean survival time, dose: 80.0 mg/kg/injection, schedule: Q01DX001 (ip), vehicle: saline): 103 % of control

SMILES: C/C=C\c1ccc(OCCOC(=O)Nc2cc(Cl)c(OC)cc2OC)c(OC)c1
- T/C [1]: 90 % of control
- T/C [2]: 90 % of control

SMILES: OC(c1ccccc1)(c1ccccc1)c1ccccc1 (tested in a mixture with another compound)
- T/C [7]: 98 % of control
- T/C [8]: 91 % of control
- T/C [9]: 97 % of control

SMILES: CC1=CC(CO)C2C(=O)NC(=O)C2C1C (stereo not given)
- T/C (endpoint: mean survival time, dose: 100.0 mg/kg/injection, schedule: Q01DX001 (ip), vehicle: Klucel (hydroxypropylcellulose) (HPC)): 98 % of control
- T/C (endpoint: mean survival time, dose: 200.0 mg/kg/injection, schedule: Q01DX001 (ip), vehicle: Klucel (hydroxypropylcellulose) (HPC)): 105 % of control
- T/C (endpoint: mean survival time, dose: 400.0 mg/kg/injection, schedule: Q01DX001 (ip), vehicle: Klucel (hydroxypropylcellulose) (HPC)): 105 % of control

SMILES: CC(C)=NNc1cc(N)nc2c1ncn2C1OC(CO)C(O)C1O (stereo not given)
- T/C (endpoint: mean survival time, dose: 50.0 mg/kg/injection, schedule: Q01DX005 (ip), vehicle: water): 90 % of control
- T/C (endpoint: mean survival time, dose: 100.0 mg/kg/injection, schedule: Q01DX005 (ip), vehicle: water): 94 % of control
- T/C (endpoint: mean survival time, dose: 200.0 mg/kg/injection, schedule: Q01DX005 (ip), vehicle: water): 104 % of control

SMILES: CCCN(CCC)N=Nc1c(C(=O)OC)n[nH]c1C
- T/C (endpoint: mean survival time, dose: 25.0 mg/kg/injection, schedule: Q01DX009 (ip), vehicle: saline with Tween-80): 97 % of control
- T/C [1]: 102 % of control
- T/C [2]: 104 % of control and 108 % of control
- T/C (endpoint: mean survival time, dose: 117.0 mg/kg/injection, schedule: Q01DX009 (ip), vehicle: saline with Tween-80): 122 % of control
- T/C (endpoint: mean survival time, dose: 178.0 mg/kg/injection, schedule: Q01DX009 (ip), vehicle: saline with Tween-80): 97 % of control

SMILES: Cc1cn(C2OC(CO)C(O)C2O)c(=O)nc1N (stereo not given)
- T/C (endpoint: median survival time, dose: 25.0 mg/kg/injection, schedule: Q01DX005 (ip), vehicle: water): 96 % of control
- T/C (endpoint: median survival time, dose: 50.0 mg/kg/injection, schedule: Q01DX005 (ip), vehicle: water): 104 % of control
- T/C (endpoint: median survival time, dose: 100.0 mg/kg/injection, schedule: Q01DX005 (ip), vehicle: water): 104 % of control
- T/C (endpoint: median survival time, dose: 200.0 mg/kg/injection, schedule: Q01DX005 (ip), vehicle: water): 104 % of control

SMILES: CC1CCCC2(C)CCC(C(C)(C)O)CC12 (stereo not given)
- T/C [4]: 103 % of control
- T/C [5]: 100 % of control
- T/C [6]: 103 % of control
